Source: the supplement of paper PMC13380429

Columns and labels:
Conditions in all cases: 72 h
Vero E6 [1] = assay: relative viability EC50 (midpoint between 100% and the lowest measured viability); higher = less toxic
Caco-2 [2] = assay: as above
U2OS [3] = assay: as above
HepG2 [4] = assay: as above
Calu-3 [5] = assay: as above
Vero E6 [6] = assay: drug sensitivity score (DSS) for viability; higher = more toxic; extreme values may be limits of the assay
Caco-2 [7] = assay: as above
U2OS [8] = assay: as above
HepG2 [9] = assay: as above
Calu-3 [10] = assay: as above
Vero E6 [11] = assay: cell viability relative to DMSO; higher = less toxic
Caco-2 [12] = assay: as above
U2OS [13] = assay: as above
HepG2 [14] = assay: as above
Calu-3 [15] = assay: as above

Row | SMILES | relative viability EC50 (Vero E6 [1]) | relative viability EC50 (Caco-2 [2]) | relative viability EC50 (U2OS [3]) | relative viability EC50 (HepG2 [4]) | relative viability EC50 (Calu-3 [5]) | drug sensitivity score (Vero E6 [6]) | drug sensitivity score (Caco-2 [7]) | drug sensitivity score (U2OS [8]) | drug sensitivity score (HepG2 [9]) | drug sensitivity score (Calu-3 [10]) | cell viability (Vero E6 [11]; 1 nM) | cell viability (Vero E6 [11]; 10 nM) | cell viability (Vero E6 [11]; 100 nM) | cell viability (Vero E6 [11]; 1000 nM) | cell viability (Vero E6 [11]; 10000 nM) | cell viability (Caco-2 [12]; 1 nM) | cell viability (Caco-2 [12]; 10 nM) | cell viability (Caco-2 [12]; 100 nM) | cell viability (Caco-2 [12]; 1000 nM) | cell viability (Caco-2 [12]; 10000 nM) | cell viability (U2OS [13]; 1 nM) | cell viability (U2OS [13]; 10 nM) | cell viability (U2OS [13]; 100 nM) | cell viability (U2OS [13]; 1000 nM) | cell viability (U2OS [13]; 10000 nM) | cell viability (HepG2 [14]; 1 nM) | cell viability (HepG2 [14]; 10 nM) | cell viability (HepG2 [14]; 100 nM) | cell viability (HepG2 [14]; 1000 nM) | cell viability (HepG2 [14]; 10000 nM) | cell viability (Calu-3 [15]; 1 nM) | cell viability (Calu-3 [15]; 10 nM) | cell viability (Calu-3 [15]; 100 nM) | cell viability (Calu-3 [15]; 1000 nM) | cell viability (Calu-3 [15]; 10000 nM)
1 | CC(C)c1ccc(NC(=O)Cn2cnc3c2c(=O)n(C)c(=O)n3C)cc1 | > 10 µM | > 10 µM | > 10 µM | > 10 µM | > 10 µM | 0 | 0 | 0 | 0 | 0 | 91.6% | 107% | 98.7% | 102% | 101% | 100% | 96% | 92.5% | 89.1% | 95.9% | 99.7% | 97.2% | 101% | 100% | 98.2% | 97.3% | 106% | 93.4% | 112% | 98.5% | 87% | 81.2% | 92.9% | 90% | 94.8%
2 | CN1CCC(COc2cnc(-c3cccc(Cn4nc(-c5cccc(C#N)c5)ccc4=O)c3)nc2)CC1 | > 10 µM | > 10 µM | > 10 µM | > 10 µM | > 10 µM | 0 | 0 | 0 | 0 | 0 | 102% | 97.8% | 95.7% | 95.9% | 106% | 96.1% | 99.7% | 93.8% | 100% | 94.9% | 96.3% | 97.4% | 106% | 99% | 102% | 106% | 93.4% | 106% | 95.2% | 99.2% | 103% | 110% | 93.3% | 101% | 110%
3 | COCCN1CCN(Cc2ccc(-c3n[nH]c4c3C(=O)c3c(NC(=O)NN5CCOCC5)cccc3-4)cc2)CC1 | 0.306 µM | 0.186 µM | 0.269 µM | 0.0894 µM | 0.165 µM | 16 | 10.8 | 17.1 | 21.9 | 13.4 | 97.8% | 102% | 98.2% | 13.1% | 12.5% | 97.9% | 102% | 91.1% | 49% | 55% | 102% | 107% | 94.5% | 9.8% | 19% | 107% | 99.8% | 51% | 15.4% | 11.3% | 105% | 109% | 86.5% | 39% | 55.8%
4 | COc1ccccc1CC(=N)N1C[C@@H]2C(=O)CCC(c3ccccc3)(c3ccccc3)[C@@H]2C1 | > 10 µM | > 10 µM | > 10 µM | > 10 µM | > 10 µM | 0 | 0 | 0 | 0 | 0 | 94.3% | 101% | 94.7% | 95.9% | 110% | 96.6% | 96.5% | 95.3% | 109% | 98.4% | 103% | 95.1% | 101% | 101% | 93.8% | 93% | 95.9% | 88.2% | 106% | 105% | 94.1% | 88.4% | 98.3% | 109% | 86.6%
5 | C[C@@H](N)[C@H]1CC[C@H](C(=O)Nc2ccncc2)CC1 | > 10 µM | > 10 µM | > 10 µM | > 10 µM | > 10 µM | 0 | 0 | 0 | 0 | 0 | 97.8% | 99.1% | 96.4% | 93.7% | 92.2% | 101% | 95.3% | 96.2% | 104% | 108% | 99% | 102% | 91.1% | 102% | 92% | 97.8% | 96.8% | 95.2% | 84.5% | 99.3% | 84.6% | 97.2% | 104% | 114% | 122%
6 | Cc1cc(-c2cc(OC(=O)c3ccccc3)ccc2Cl)cc2nnc(Nc3ccc(OCCN4CCCC4)cc3)nc12 | > 10 µM | > 10 µM | > 10 µM | > 10 µM | > 10 µM | 0 | 0 | 0 | 0 | 0 | 98.4% | 97.3% | 97.2% | 96.9% | 112% | 98.1% | 95.6% | 99% | 93% | 116% | 98.3% | 99% | 101% | 100% | 102% | 108% | 107% | 95.2% | 89% | 107% | 102% | 115% | 90.9% | 102% | 104%
7 | Cc1cc(NCCO)nc(-c2ccc(Br)cc2)n1 | > 10 µM | > 10 µM | > 10 µM | > 10 µM | > 10 µM | 0.3 | 0 | 0 | 0 | 0 | 102% | 101% | 93.1% | 93.9% | 84.6% | 95.3% | 91.8% | 104% | 93.1% | 97% | 99.5% | 100% | 99.7% | 95.8% | 99.7% | 97.4% | 98.9% | 86.9% | 95.8% | 94.3% | 105% | 87.6% | 99.5% | 109% | 98.1%
8 | Cc1ccc(CC2(O)CCN(CCOc3ccc(O)cc3)CC2)cc1 | > 10 µM | > 10 µM | > 10 µM | > 10 µM | > 10 µM | 0 | 0 | 0 | 1 | 0 | 103% | 101% | 99.4% | 99.6% | 93.1% | 103% | 101% | 95.5% | 91.7% | 92.2% | 100% | 96.8% | 97.8% | 97.1% | 99.7% | 100% | 90.4% | 108% | 90.3% | 84.6% | 110% | 96.5% | 91.7% | 95.9% | 96.9%
9 | Cc1ccc(Sc2cncc3sc(C(N)=O)cc23)cc1 | > 10 µM | > 10 µM | > 10 µM | > 10 µM | > 10 µM | 0 | 0 | 0 | 1.6 | 1.2 | 94.3% | 98.3% | 82% | 91.4% | 98.1% | 97.7% | 92.1% | 96.5% | 89.2% | 90.8% | 100% | 97.5% | 110% | 108% | 113% | 94.4% | 105% | 86.7% | 87.6% | 87.7% | 95.7% | 102% | 89.6% | 90.9% | 80.6%
10 | NC1CCN(c2cccc(Cl)n2)CC1 | > 10 µM | > 10 µM | > 10 µM | > 10 µM | > 10 µM | 0 | 0 | 0 | 0 | 0 | 101% | 100% | 94.3% | 96% | 96.2% | 95.9% | 97% | 96.6% | 103% | 96.5% | 101% | 101% | 101% | 102% | 95.2% | 94.8% | 100% | 102% | 111% | 101% | 89.4% | 93% | 99.5% | 87.9% | 102%
11 | O=C(O)c1cnn(-c2nc3cc(OC(F)(F)F)c(Cl)cc3[nH]2)c1 | > 10 µM | > 10 µM | > 10 µM | > 10 µM | > 10 µM | 0 | 0 | 0.5 | 0 | 0 | 97.2% | 104% | 100% | 103% | 93.7% | 104% | 92.7% | 97.6% | 103% | 93.6% | 101% | 96% | 90.3% | 88.8% | 93.3% | 93.8% | 96.2% | 91.9% | 104% | 88.1% | 89.5% | 106% | 105% | 102% | 98.5%
12 | O=S(=O)(c1ccccc1)N(CC(F)(F)F)c1ccc(C(O)(C(F)(F)F)C(F)(F)F)cc1 | > 10 µM | > 10 µM | > 10 µM | > 10 µM | > 10 µM | 0 | 0.5 | 0 | 1.8 | 0 | 103% | 102% | 98.1% | 101% | 98.8% | 96% | 89.8% | 93.9% | 87.5% | 87.5% | 104% | 101% | 102% | 97.7% | 96.5% | 97.1% | 107% | 94.3% | 87.4% | 78.3% | 107% | 96.5% | 99.2% | 98.2% | 99.7%
13 | C#C[C@]1(O)CC[C@H]2[C@@H]3CCC4=CC(=NO)CC[C@@H]4[C@H]3CC[C@@]21CC (mixture of isomers) [norelgestromin] | > 10 µM | > 10 µM | > 10 µM | > 10 µM | > 10 µM | 0 | 0 | 0 | 0 | 0 | 102% | 101% | 92% | 99.1% | 103% | 89% | 94.1% | 91.7% | 98.3% | 98.5% | 99.1% | 101% | 94.4% | 101% | 98.6% | 95.9% | 101% | 105% | 108% | 110% | 102% | 95.2% | 103% | 93.5% | 101%
14 | CSc1ccc([C@H]2CN3CCC[C@H]3c3ccccc32)cc1 (racemic) [McN-5652-(+/-)] | > 10 µM | > 10 µM | > 10 µM | > 10 µM | > 10 µM | 0 | 0 | 0 | 0 | 0 | 99.6% | 102% | 102% | 96.3% | 104% | 92.2% | 100% | 96.1% | 103% | 98.7% | 97.8% | 105% | 96.8% | 105% | 102% | 102% | 89.9% | 98.5% | 90.3% | 105% | 102% | 101% | 106% | 84.9% | 105%
